# Experiments:
# [1] = Plasma protein binding study; assay type: in vitro ADME; details: mouse plasma, equilibrium dialysis 4 hours; read-out: PPB-mouse (Bound) (%) (converted)
# Procedure: On the day of experiment, the plasma was thawed under running cold tap water and centrifuged at 3220×g for 5 min to remove any clots. The pH value was checked and recorded. Only plasma within range of pH 7.0 to pH 8.0 was used. Pretreat the dialysis membrane according to the manufacturer's instructions: the dialysis membrane strips were soaked in ultra pure water at room temperature for approximately 1 hr. After that, each membrane strip that contains 2 membranes was separated and soaked in ethanol:water (20:80 v:v) for approximately 20 min, after which it was ready for use or was stored in the solution at 2-8° C. for up to 1 month. Prior to the experiment, the membrane was rinsed and soaked for 20 min in ultra pure water for use. Working solutions (400 μM) of test compound and control compound were prepared. Aliquots of working solutions (3 μL) were spiked into blank matrix (597 μL) to achieve final concentrations and mixed thoroughly. Aliquots of 50 μL loading matrix containing test compound or control compound in triplicate was transferred to Sample Collection Plate, respectively. The samples were matched with opposite blank buffer to obtain a final volume of 100 μL with a volume ratio of matrix:Dialysis Buffer (1:1, v:v) in each well immediately. The stop solution was added to these T0 samples of test compound and control compound. The plate was sealed and shaked at 800 rpm for 10 min. Then these T0 samples were stored at 2-8° C. pending further process along with other post-dialysis samples. The dialysis instrument was assembled following manufacture's instructions. An aliquot of 100 μL of the loading matrix containing test compound or control compound was transferred to the donor side of each dialysis well in triplicate and 100 μL of the Dialysis Buffer was loaded to the receiver side of the well. Then the plate was rotated at approximately 100 rpm in a humidified incubator with 5% CO2 at 37±1° C. for 4 hours. At the end of the dialysis, aliquots of 50 μL samples from the buffer side and matrix side of the dialysis device were taken into new 96-well plates (Sample Collection Plates). An equal volume of opposite blank matrix (buffer or matrix) in each sample was added to reach a final volume of 100 μL with volume ratio of matrix:Dialysis Buffer at 1:1 (v:v) in each well. All samples were further processed by protein precipitation for LC/MS/MS analysis.
# [2] = test system: microglia (Iba1+ cells) in cortex and hippocampus; experiment: In vivo microglial depletion; set-up: species or system C57BL/6 mice; details: for Mean Cortical Ibal + Cell Density ± SEM (mm^−2) / Mean Hippocampal Ibal + Cell Density ± SEM (mm^−2): oral gavage BID 7 days; for Mean Cortical Ibal + Cell Density ± SEM (mm^−2): cortex; for Mean Hippocampal Ibal + Cell Density ± SEM (mm^−2): hippocampus
# Procedure: To measure the in vivo pharmacodynamic effect, we quantified microglial depletion following repeated dosing of our compound in naive animals. Female C57BL/6 mice were given Example 134 (0, 50, 100, or 200 mg/kg/day, respectively) by oral gavage BID for 7 days. Following the final dose, mice were perfused with PBS followed by 4% paraformaldehyde (PFA). Brains were post-fixed overnight in 4% PFA and then transferred to 30% sucrose solution. Sagittal sections were sliced and stained for the microglial marker Iba1 and counterstained for DAPI. Brain sections were then imaged under 20× wide-field imaging, and the microglia density was quantified in the cortex and hippocampus.
# [3] = test system: ERK1/2 phosphorylation in BV2 cells; experiment: p-ERK1/2 Western blot assay in BV2 cells; assay type: cell-based, murine; details: Mus musculus, BV-2, 30 minutes pretreatment, CSF1 100 ng/mL 5 minutes
# BV2 cells = experiment: BV2 cell proliferation (Cell Titer Glo); assay type: cell-based, murine; details: Mus musculus, BV-2, CSF1 100 ng/mL, 72 h
# [4] = test system: CSF1R phosphorylation in THP-1 cells; experiment: p-CSF1R ELISA assay in THP1 cells; assay type: cell-based; details: Homo sapiens, THP1 cells pre-treated one hour, stimulated with hCSF1, read-out: THP1 pCSFIR ELISA EC50
# [5] = test system: CSF1R phosphorylation in BV2 cells; experiment: p-CSF1R Western blot assay in BV2 cells; assay type: cell-based, murine; details: Mus musculus, BV-2, 30 minutes pretreatment, CSF1 100 ng/mL 5 minutes
# [6] = test system: CSF1R phosphorylation in THP-1 cells; experiment: Inhibition of CSF1R phosphorylation in THP-1 monocytes (ELISA, Table D); assay type: cell-based, human; details: FIG. 6
# Procedure: The THP-1 human monocyte-like cell line has intact CSF1R signaling that allows for the probing of the activation status of this pathway when stimulated by recombinant CSF. THP-1 cells were expanded in-vitro and pretreated with CSF1R inhibitors for an hour prior to stimulation with recombinant human M-CSF for 5 minutes. The cells were lysed, and the lysate was probed for activated CSF1R (pCSF1R) using ELISA. Using GraphPad Prism, a four-parameter logistic regression was applied to determine the potency of the CSF1R inhibitors.
compound,measurement,setting,value
"COc1cnc2c(Cc3cnc(OCc4cc5n(n4)CCOC5)c(OC)c3)ccnc2c1 [Example 73, 2-(((3-methoxy-5-((7-methoxy-1,5-naphthyridin-4-yl)methyl)pyridin-2-yl)oxy)methyl)-6,7-dihydro-4H-pyrazolo[5,1-c][1,4]oxazine]","fraction unbound at 4 h, 2 µM",[1],0.01
COc1ccc(COc2ncc(Cc3ccnc4cc(N5CCN(C)CC5)cnc34)cc2OC)nc1 [Example 116],"fraction unbound at 4 h, 2 µM",[1],0.042
"COc1cnc2c(Cc3cnc(OCc4cc5n(n4)C[C@H](OC)C5)c(OC)c3)ccnc2c1 [Example 136, (R)-3-methoxy-8-((5-methoxy-6-((5-methoxy-5,6-dihydro-4H-pyrrolo[1,2-b]pyrazol-2-yl)methoxy)pyridin-3-yl)methyl)-1,5-naphthyridine]","fraction unbound at 4 h, 2 µM",[1],0.005
"COc1ccc(COc2ncc(Cc3ccnc4cc(-c5ccn(C)n5)cnc34)cc2OC)nc1 [Example 134, 8-((5-methoxy-6-((5-methoxypyridin-2-yl)methoxy)pyridin-3-yl)methyl)-3-(1-methyl-1H-pyrazol-3-yl)-1,5-naphthyridine]",decrease of microglia density in the cortex compared to vehicle control,[2]; 50 mg/kg,> 22%
same,Mean Cortical Ibal + Cell Density ± SEM (mm^−2),[2]; 50 mg/kg,63.6 ± 8.1 mm^−2
same,Mean Hippocampal Ibal + Cell Density ± SEM (mm^−2),[2]; 50 mg/kg,73.3 ± 7.8 mm^−2
same,decrease of microglia density in the cortex compared to vehicle control,[2]; 100 mg/kg,> 91%
same,decrease of microglia density in the hippocampus relative to vehicle control,[2]; 100 mg/kg,> 83%
same,Mean Cortical Ibal + Cell Density ± SEM (mm^−2),[2]; 100 mg/kg,6.9 ± 1.2 mm^−2
same,Mean Hippocampal Ibal + Cell Density ± SEM (mm^−2),[2]; 100 mg/kg,13.6 ± 2.2 mm^−2
same,decrease of microglia density in the cortex compared to vehicle control,[2]; 200 mg/kg,> 98%
same,decrease of microglia density in the hippocampus relative to vehicle control,[2]; 200 mg/kg,> 93%
same,Mean Cortical Ibal + Cell Density ± SEM (mm^−2),[2]; 200 mg/kg,1.5 ± 0.3 mm^−2
same,Mean Hippocampal Ibal + Cell Density ± SEM (mm^−2),[2]; 200 mg/kg,5.6 ± 0.9 mm^−2
same,"fraction unbound at 4 h, 2 µM",[1],0.008
"COc1ccc(COc2ncc(Cc3ccnc4cc(OC)cnc34)cc2OC)nc1 [Example 16, 3-methoxy-8-((5-methoxy-6-((5-methoxypyridin-2-yl)methoxy)pyridin-3-yl)methyl)-1,5-naphthyridine]",EC50,[3],21.4 nM
same,EC50,BV2 cells,45.4 nM
same,EC50,[4],10.8 nM
same,EC50,[5],47.2 nM
same,"fraction unbound at 4 h, 2 µM",[1],0.0063
same,CSF1R phosphorylation in CSF1R-stimulated THP-1 monocytes,[6],dose-dependent inhibition of CSF1R phosphorylation
